Legend:
[1] = test system: A549 NRF2-ARE-Fluc stable cell line; assay: A549 Nrf2 assay: NRF2-ARE firefly luciferase reporter gene assay; assay type: cell-based; settings: Homo sapiens, read-out: Potency of inhibition, A549
Text: A549, the parental cell line, is a non-small-cell lung cancer (NSCLC) cell line with loss-of-function (LOF) Keap1 activity, thus NRF2 transcription factor constitutively translocates into the nucleus to activate the expression of downstream target genes of NRF2. A firefly luciferase reporter (Fluc) construct driven by a minimal promoter of NRF2-specific anti-oxidant responsive element (ARE) is stably expressed in the A549 cells. Compounds that reduce the translocation of NRF2 into the nucleus or prevent the interaction between NRF2 and ARE will lead to a decrease in luciferase activity.
The final concentration of DMSO was maintained at 0.46%. Control compounds Budesonide and Staurosporine were both added at a concentration of 2 mM and Budesonide also was added as a 1:10 titration, starting at 200 μM, to achieve dose-response. After an 18-24 hour incubation at 37° C., 95% humidity, and 5% CO2, 1 μL of 5× CellTiter-Fluor non-lytic cell viability assay reagent (Promega, Madison, Wis.) was added into the each well of the plates. The plates were then incubated for 30 minutes at room temperature before they were read on a ViewLux plate imager (Perkin Elmer, Waltham, Mass.) using an excitation wavelength of 405 nm and an emission wavelength of 525 nm.
A cell based reporter assay approach was used for the identification of agents that could inhibit Nrf2 mediated gene expression (FIG. 1). A549-ARE-luciferase cells express the luciferase gene driven by a minimal promoter and an enhancer element containing an NRF2 binding site (Antioxidant Response Element, ARE).
(§1) Representative compounds were assayed to assess the potency of inhibition in an A549 NRF2-ARE-Fluc stable cell line (A549 Nrf2 assay), in an H838 NRF2-ARE-Fluc stable cell line (H838 Nrf2 assay), and in an H1437 NRF2-ARE-Fluc stable cell line (H1437 Nrf2 assay) (see Table 3).

[2] = test system: H1437 NRF2-ARE-Fluc stable cell line; assay: H1437 Nrf2 assay: NRF2-ARE firefly luciferase reporter gene assay; assay type: cell-based; settings: Homo sapiens, NCI-H1437, H1437 NRF2-ARE-Fluc stable cell line; read-out: Potency of inhibition, H1437
Text: H1437 is another NSCLC cell line with LOF Keap1 activity and constitutive translocation of NRF2 into the nucleus. A firefly luciferase reporter construct driven by a minimal promoter of NRF2-specific ARE is stably expressed in the H1437 cells. This cell line was used as a confirmation assay to make sure hits identified from primary screening and that passed counterscreen assays worked in different cell types with a constitutively active NRF2 pathway (deficiency in Keap1).
This assay was very similar to the primary assay except that the cell line was changed. […] The final concentration of DMSO was maintained at 0.46%. Control compounds Budesonide and Staurosporine were both added at a concentration of 2 mM and Budesonide was also added as a 1:10 titration, starting at 200 μM, to achieve dose-response. After an 18-24 hour incubation at 37° C., 95% humidity, and 5% CO2, 1 μL of 5× CellTiter-Fluor non-lytic cell viability assay reagent (Promega, Madison Wis.) was added into the each well of the plates. The plates were then incubated for 30 minutes at room temperature before they were read on a ViewLux plate imager (Perkin Elmer, Waltham Mass.) using an excitation wavelength of 405 nm and an emission wavelength of 525 nm.
as §1

| Compound | IC50 [1] | IC50 [2] |
| --- | --- | --- |
| O=C(Nc1ccc(S(=O)(=O)N2CCOCC2)cc1)c1ccc(CN2CCCc3ccccc32)cc1 [compound 172] | < 5 µM | < 5 µM |
| Cc1ccccc1CCNC(=O)c1ccc(Cl)c(S(=O)(=O)N2CC(C)OC(C)C2)c1 (stereo not drawn) [Compound 44] | 5 to 25 µM | 5 to 25 µM |
| COc1ccc(-c2cc(C)no2)cc1S(=O)(=O)N1CCN(c2ccc([N+](=O)[O-])cc2)CC1 [Compound 42] | < 5 µM | < 5 µM |
| CN(C1COC1)S(=O)(=O)c1ccc(NC(=O)c2ccc(CN3CCc4ccccc4C3)cc2)cc1 [compound 173] | < 5 µM | < 5 µM |
| Cc1ccccc1C(=O)N1CCc2cc(-c3nc(NC(=O)Cc4cccc(OCCOCCOCCNC(=O)OC(C)(C)C)c4)sc3C)ccc21 [Compound 237, tert-butyl (2-(2-(2-(3-(2-((5-methyl-4-(1-(2-methylbenzoyl)indolin-5-yl)thiazol-2-yl)amino)-2-oxoethyl)phenoxy)ethoxy)ethoxy)ethyl)carbamate] | < 5 µM | < 5 µM |
| Cc1cccc(CC(=O)Nc2nc(-c3ccc4c(c3)CCN4S(=O)(=O)c3ccccc3C)c(C)s2)c1 [Compound 131] | 5 to 25 µM | 5 to 25 µM |
| Cc1ccccc1C(=O)N1CCc2cc(-c3nc(NC(=O)CN4CCN(c5ccccc5)CC4)sc3C)ccc21 [Compound 229] | < 5 µM | < 5 µM |
| Cc1onc(-c2ccccc2)c1C(=O)N1CCc2cc(-c3nc(NC(=O)Cc4ccc5c(c4)OCO5)sc3C)ccc21 [Compound 160] | > 25 µM | > 25 µM |
| O=C(Nc1ncc(Cc2ccc(C(F)(F)F)cc2)s1)c1ccnc(-c2ccccc2)c1 [Compound 58] | > 25 µM | 5 to 25 µM |
| COc1ccc(CC(=O)Nc2nc(-c3ccc4c(c3)CCN4C(=O)c3ccccc3C)c(C)s2)cn1 [Compound 112] | < 5 µM | < 5 µM |
| Cc1ccccc1C(=O)n1ncc2cc(-c3cccc(NC(=O)Cc4ccccc4)n3)ccc21 [Compound 95] | < 5 µM | 5 to 25 µM |
| Cc1ccccc1S(=O)(=O)N1CCc2cc(-c3nc(NC(=O)Cc4ccc(Cl)cc4)sc3C)ccc21 [Compound 135] | < 5 µM | 5 to 25 µM |
| O=C(Cc1ccccc1)Nc1cccc(-c2ccc(N3CCCCC3)cc2)n1 [Compound 63] | > 25 µM | > 25 µM |
| Cc1ccccc1C(=O)N1CCc2cc(-c3ccnc(NC(=O)Cc4ccccc4)n3)ccc21 [Compound 102] | 5 to 25 µM | > 25 µM |
| Cc1sc(NC(=O)Cc2ccc3c(c2)OCO3)nc1-c1ccc2c(c1)CCN2C(=O)c1cnoc1C(C)C [Compound 158] | < 5 µM | > 25 µM |
| Cc1ccsc1C(=O)N1CCc2cc(-c3nc(NC(=O)Cc4ccc5c(c4)OCO5)sc3C)ccc21 [Compound 182] | < 5 µM | < 5 µM |
| O=C(Nc1ncc(Cc2ccc(C(F)(F)F)cc2)s1)c1cnc(-c2ccccc2)o1 [Compound 86] | 5 to 25 µM | 5 to 25 µM |
| O=C(Nc1ncc(Cc2ccc(C(F)(F)F)cc2)s1)c1ccc(-c2ccccc2[N+](=O)[O-])o1 [Compound 18] | 5 to 25 µM | < 5 µM |
| Cc1sc(NC(=O)Cc2ccc3c(c2)OCO3)nc1-c1ccc2c(c1)CCN2C(=O)C1CCCCC1 [Compound 25] | 5 to 25 µM | < 5 µM |
| O=C(Nc1ncc(Cc2ccc(C(F)(F)F)cc2)s1)c1ccco1 [Compound 15] | > 25 µM | > 25 µM |
| Cc1nc(C(=O)N2CCc3cc(-c4nc(NC(=O)Cc5ccc6c(c5)OCO6)sc4C)ccc32)c(C)o1 [Compound 157] | < 5 µM | < 5 µM |
| CCN(C1CCCCC1)S(=O)(=O)c1ccc(S(=O)(=O)NCc2ccncc2)cc1 [Compound 33] | 5 to 25 µM | < 5 µM |
| O=C(Nc1ncc(Cc2ccc(C(F)(F)F)cc2)s1)c1ccn(CCN2CCOCC2)n1 [Compound 231] | 5 to 25 µM | < 5 µM |
| CN(Cc1ccccc1)Cc1ccc(C(=O)Nc2ccc(S(=O)(=O)N3CCOCC3)cc2)cc1 [compound 168] | < 5 µM | < 5 µM |

From patent US20160046616A1, “NRF2 SMALL MOLECULE INHIBITORS FOR CANCER THERAPY” (THE JOHNS HOPKINS UNIVERSITY, priority 2013, published 2016)
